Tests used:
Assay type in all cases: biochemical
[1] = biological target: T1, human butyrylcholinesterase (hBChE) (Homo sapiens, UniProt P06276); assay: Progressive inhibition of hBChE by organophosphorus pesticides (Ellman method); details: for kinact/KI: read-out: ki, overall second-order rate constant of inhibition (converted)
T1 construct: hBChE derived from purified human plasma; from tissue; host or cells: human plasma

[2] = biological target: T2, human acetylcholinesterase (hAChE) (Homo sapiens, UniProt P22303); assay: Progressive inhibition of hAChE by organophosphorus pesticides (Ellman method); details: 25 °C, ± SEM; for kinact/KI: read-out: ki, overall second-order rate constant of inhibition (converted)
T2 construct: made in house
T2 sequence (P22303 32-614): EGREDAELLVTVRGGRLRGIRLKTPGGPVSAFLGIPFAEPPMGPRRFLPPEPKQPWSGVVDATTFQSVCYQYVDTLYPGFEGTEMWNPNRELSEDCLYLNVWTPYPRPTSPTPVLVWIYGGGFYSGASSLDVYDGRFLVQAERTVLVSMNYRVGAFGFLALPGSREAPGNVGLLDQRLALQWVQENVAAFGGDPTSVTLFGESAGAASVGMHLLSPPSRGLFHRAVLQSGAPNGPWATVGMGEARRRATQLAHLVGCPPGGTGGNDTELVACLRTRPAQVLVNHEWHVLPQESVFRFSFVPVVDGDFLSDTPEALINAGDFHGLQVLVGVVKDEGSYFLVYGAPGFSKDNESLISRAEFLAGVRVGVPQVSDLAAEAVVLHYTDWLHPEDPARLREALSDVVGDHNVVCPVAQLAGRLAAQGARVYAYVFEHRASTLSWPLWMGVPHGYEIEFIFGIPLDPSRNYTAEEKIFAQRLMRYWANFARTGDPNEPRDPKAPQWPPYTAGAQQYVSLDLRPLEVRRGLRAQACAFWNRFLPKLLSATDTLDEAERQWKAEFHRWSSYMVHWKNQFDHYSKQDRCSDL

[3] = biological target: fenamiphos-inhibited hAChE (Homo sapiens, UniProt P22303)
fenamiphos-inhibited hAChE, sequence (P22303 32-614): as above

human AChE = human AChE (Homo sapiens, UniProt P22303)
human AChE, sequence (P22303 32-614): as above

[4] = biological target: methamidophos-inhibited hAChE (Homo sapiens, UniProt P22303)
methamidophos-inhibited hAChE, sequence (P22303 32-614): as above

T1 sequence (P06276 29-602): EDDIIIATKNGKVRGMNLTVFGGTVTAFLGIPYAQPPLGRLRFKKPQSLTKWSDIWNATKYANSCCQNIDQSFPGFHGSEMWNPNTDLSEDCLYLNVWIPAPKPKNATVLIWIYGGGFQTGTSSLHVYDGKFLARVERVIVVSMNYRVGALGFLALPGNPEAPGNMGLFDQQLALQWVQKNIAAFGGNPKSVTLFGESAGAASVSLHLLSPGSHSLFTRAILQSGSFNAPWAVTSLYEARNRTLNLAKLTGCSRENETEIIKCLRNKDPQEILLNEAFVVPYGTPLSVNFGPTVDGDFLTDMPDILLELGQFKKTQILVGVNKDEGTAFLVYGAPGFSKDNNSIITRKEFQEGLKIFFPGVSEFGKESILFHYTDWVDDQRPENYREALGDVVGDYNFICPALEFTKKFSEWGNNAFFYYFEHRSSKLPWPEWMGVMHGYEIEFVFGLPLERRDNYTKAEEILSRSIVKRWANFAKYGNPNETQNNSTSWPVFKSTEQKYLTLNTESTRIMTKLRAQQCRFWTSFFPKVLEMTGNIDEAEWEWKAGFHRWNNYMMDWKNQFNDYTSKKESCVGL

| SMILES | kmax, first-order inhibition constant ([1]; hBChE, 25 °C, ± SEM) [min⁻¹] | Reactmax (screening) [3] [%] | Reactmax, maximal percentage of reactivation [3] [%] | k2, maximal first-order reactivation rate constant [3] [min⁻¹] | kobs, observed reactivation rate (screening) [3] [min -1] | kr, overall second-order reactivation rate constant [3] [M⁻¹ s⁻¹] | t, time to achieve maximum of reactivation (screening) [3] [h] | Inhibition of AChE with oxime (human AChE) [%] | Reactmax (screening) [4] [%] | Reactmax, maximal percentage of reactivation [4] [%] | k2, maximal first-order reactivation rate constant [4] [min⁻¹] | kobs, observed reactivation rate (screening) [4] [min -1] | kr, overall second-order reactivation rate constant [4] | t, time to achieve maximum of reactivation (screening) [4] [h] | other results |
| --- | --- | --- | --- | --- | --- | --- | --- | --- | --- | --- | --- | --- | --- | --- | --- |
| CCCSP(=O)(OCC)SCCC [Ethoprophos, ethoprophos] | 0.58 ± 0.05 | – | – | – | – | – | – | – | – | – | – | – | – | – | Ki [1]: 36.4 ± 6.68 µM |
| CCOP(=O)(NC(C)C)Oc1ccc(SC)c(C)c1 (stereo not shown) [Fenamiphos, fenamiphos] | 0.16 ± 0.01 | – | – | – | – | – | – | – | – | – | – | – | – | – | ki, overall second-order rate constant of inhibition ([1]; hBChE, 25 °C, ± SEM): 35,890 ± 8,484 min^-1 M^-1; ki, overall second-order rate constant of inhibition [2]: 3,982 ± 264 min^-1 M^-1; kmax, first-order inhibition constant [2]: 0.21 ± 0.01 min⁻¹ |
| COP(N)(=O)SC (stereo not shown) [Methamidophos, methamidophos] | – | – | – | – | – | – | – | – | – | – | – | – | – | – | ki lower than that of fenamiphos ([1]; hBChE): 90 fold; kinact/KI ([1]; hBChE, 25 °C, ± SEM): 6.43 M⁻¹ s⁻¹; kinact/KI [2]: 46 M⁻¹ s⁻¹ |
| C[n+]1ccccc1C=NO [Oxime 2-PAM] | – | 46 | 70 | 0.003 ± 0.0002 | 0.0011 | 0.125 ± 0.025 | 20 | 11 | 86 | 80 | 2.7 ± 0.2 | 1.1558 | 42,190 ± 2,547 min^−1 M^−1 | 0.36 | – |
| ON=Cc1cc[n+](CCn2cc(C[n+]3ccccc3C=NO)nn2)cc1 [Oxime 14A] | – | 42 | 45 | 0.069 ± 0.034 | 0.0062 | 1.43 ± 0.413 | 3 | 10 | 68 | 85 | 22.2 ± 3.8 | 6.7944 | 108,300 ± 17,090 min^−1 M^−1 | 0.08 | – |
| CCOP(=S)(OCC)SCn1c(=O)oc2cc(Cl)ccc21 [Phosalone, phosalone] | 0.23 ± 0.02 | – | – | – | – | – | – | – | – | – | – | – | – | – | Ki [1]: 97.9 ± 15.3 µM; kinact/KI ([1]; hBChE, 25 °C, ± SEM): 38.9 M⁻¹ s⁻¹; kinact/KI [2]: 35.5 M⁻¹ s⁻¹ |
| ON=Cc1cc[n+](CCC[n+]2ccc(C=NO)cc2)cc1 [TMB-4] | – | 49 | 65 | 0.082 ± 0.010 | 0.0177 | 2.237 ± 0.293 | 1 | 8 | 83 | 80 | 16.5 ± 6.6 | 4.2338 | 116,600 ± 12,380 min^−1 M^−1 | 0.16 | – |

From publication PMC8563940 (Scientific Reports, 2021)
